In brackets after ≈: the same amount, converted by molar mass. Read-outs that look alike come from different tables or passages of the source.
Legend:
Daphnia magna = experiment: OECD 211 chronic reproduction test; assay type: in vivo; settings: GMMC
Description: An OECD 211 chronic reproduction test with the cladoceran Daphnia magna was performed by ECT Oekotoxikologie with a series of concentrations of MPA in daphnid test medium plus medium-only controls over 21 days (Egeler & Chambers 2018). The test medium was exchanged every 2–3 days, the daphnids were fed with live algae (Desmodesmus subspicatus) throughout the exposure. Fresh and old medium samples were analysed by LC–MS/MS (Supplemental Information) and the time-weighted mean measured concentrations (TWMMC) for the concentrations determined. Statistical data evaluation was performed using Williams's test, Fisher's Exact test, Multiple sequentially rejective U-test after Bonferroni-Holm and Probit analysis. The endpoints in this test were survival and size (length) of the parental daphnids at the end of the test; number of young daphnids released per surviving F0 mother; any malformations or undeveloped eggs; and the intrinsic rate of reproduction (IRR), which integrates both survival and reproduction, as a measure of longer-term stability (IRR ~1), growth (IRR >1) or decline (IRR <1) of a population.

Anabaena flos-aquae = experiment: microbe, parasite or virus in culture; assay type: cell-based; settings: 72 h
Description: The new chronic ecotoxicity tests with cyanobacteria (D. Gilberg and G. Chambers, ECT Oekotoxikologie, Flörsheim, Germany, on behalf of F.Hoffmann‐La Roche, Basle, Switzerland, unpublished data), daphnids (P. Egeler and J. Chambers, ECT Oekotoxikologie, Flörsheim, Germany, on behalf of F.Hoffmann‐La Roche, Basle, Switzerland, unpublished data), and fish (D. Gilberg and G. Chambers, unpublished data) fulfilled the validity criteria of the respective OECD guidelines (see the Supplemental Data). […] The following endpoints were determined, all relating to GMMC: NOEC (both growth and yield) 83.9 µg MPA/L, LOEC 284 µg/L, ErC10 155 (95% confidence interval [CI] 137–171) µg/L, and ErC50 423 (95% CI 406–441) µg/L (D. Gilberg and G. Chambers, unpublished data).
An OECD 201 algal growth inhibition test was performed by ECT Oekotoxikologie, Flörsheim, Germany, with the cyanobacterian Anabaena flos-aquae with a series of concentrations of MPA in cyanobacteria test medium in different concentrations plus medium-only controls under continuous lighting over 72 h (Gilberg & Chambers 2017). The growth of the algae was measured by calibrated fluorescence intensity of sonicated test solution samples using a fluorometer after 24, 48 and 72 hours. The test concentrations were analysed by HPLC at the start and end of the test.

daphnid = experiment: animal or person; settings: read-out: 48‐h median effect concentration (EC50)
[1] = Solubility in buffered aqueous solutions; assay type: physicochemical; settings: buffered aqueous solution, 25 °C, aqueous buffer, read-out: Solubility in water
Description: (§1) Syntex derived many basic physicochemical properties for both MPM and MPA in the early 1990s. The results for MPA are mostly given in the present study.

[2] = set-up: method as in Franquet‐Griell et al. (2017a); settings: ref Franquet‐Griell et al. (2017a), cited from earlier work
[3] = set-up: method as in FASS 2018; settings: OECD 209; ref FASS 2018; cited from earlier work
Danio rerio [4] = experiment: Fish partial life cycle test, OECD 210 early life stage phase (F1); assay type: in vivo
Description: (§2) At the highest tested concentration of 0.1 mg MPA/L nominal concentration (73 µg/L GMMC), only 2 of 75 hatched fish survived until the end of the test, showing that the test concentration range was well chosen. The most sensitive endpoints in this partial life cycle test were survival and growth in terms of length and mass of the young F1 fish; the effects were comparatively small but statistically significant at p = 0.05. In contrast, the F0 generation was impacted to a lesser extent.
(§3) In view of the mammalian mutagenicity and reprotoxicity, a fish partial life-cycle test (PLC; an OECD 229 short-term reproduction test followed by an OECD 210 early-life-stage test) was performed by ECT Oekotoxikologie under GLP with a series of concentrations of MPA in a flow-through setting with the zebrafish Danio rerio (Gilberg & Chambers 2018). Briefly, mature fish (F0 generation) in breeding groups of 14 fish were exposed to four concentrations of the test item (0.0005, 0.0029, 0.0171 and 0.100 mg MPA/L), in fish media as well as to controls without the test item, in two replicates per treatment including controls, for 23 days in a 14-hours light to 10-hours dark photoperiod (OECD 229 phase). During this time period, reproduction parameters (survival of parents, fecundity, e.g., number of eggs, fertility and embryo viability/hatchability) of zebrafish exposed to the test item were assessed in comparison with the controls to determine the lowest observed effect concentration (LOEC) and the NOEC. After 23 days, newly fertilised eggs of the F1 generation were collected and exposed to the corresponding series of test item concentrations, 20 eggs in four replicates each per treatment including controls, until 30 days post-hatch (OECD 210 phase). Lethal and sublethal effects of the test item on eggs, larvae and juvenile fish exposed to the test item were assessed in comparison with controls to determine the LOEC and the NOEC. Samples were taken and analysed by LC–MS/MS (Supplemental Information) and the GMMC for the concentrations determined. Statistical check were made using Probit analyses, Weibull analyses, 2- and 3-parameter normal CDF, Shapiro-Wilk’s test on normal distribution, Levene’s test on variance homogeneity, Fisher's Exact Binomial test, Chi² 2×2 Table Test, Welsh t-test, Step-down Cochran-Armitage test Procedure, Williams Multiple Sequential t-test Procedure and Dunnett`s Multiple t-test Procedure.

Danio rerio [5] = experiment: Fish partial life cycle test, OECD 229 short-term reproduction phase (F0); assay type: in vivo
Description: as §2, §3

Screening vapor pressure = assay type: physicochemical
Description: as §1
The vapour pressure of MPA was estimated by Syntex by comparing losses of MPA under a nitrogen stream with losses in capped vials and comparing the results with the same losses of a reference substance of known vapour pressure (Young & Licato 1994a).

COc1c(C)c2c(c(O)c1CC=C(C)CCC(=O)O)C(=O)OC2 [MPA, 6‐(1,3‐dihydro‐4‐hydroxy‐6‐methoxy‐7‐methyl‐3‐oxo‐5‐isobenzofuranyl)‐4‐methyl‐4‐hexenoic acid]
EC10, fecundity and reproduction (Daphnia magna; 21 d): 0.929 µg/mL (≈ 2.9 µM) | LOEC, fecundity and reproduction (Daphnia magna; 21 d): 1800 µg/L | LOEC, length of parental daphnids (Daphnia magna; 21 d): 1800 µg/L | NOEC, fecundity and reproduction (Daphnia magna; 21 d): 630 µg MPA/L | NOEC, length of parental daphnids (Daphnia magna; 21 d): 630 µg/L | LOEC, mortality/immobility of parental daphnids and intrinsic rate of population increase (Daphnia magna): > 7530 µg/L | overall EC10 for the daphnids (Daphnia magna): 0.929 µg/mL | overall NOEC for the daphnids (Daphnia magna): 630 µg MPA/L | NOEC, mortality/immobility of parental daphnids and intrinsic rate of population increase (Daphnia magna; highest tested concentration): 7530 µg MPA/L | ErC10 (Anabaena flos-aquae; Anabaena flos-aquae): 155 µg/L | LOEC (Anabaena flos-aquae; Anabaena flos-aquae): 284 µg/L | NOEC (both growth and yield) (Anabaena flos-aquae; Anabaena flos-aquae): 83.9 µg MPA/L | EC50 (Anabaena flos-aquae; Dolichospermum flos-aquae, GMMC, read-out: ErC50): 0.423 µg/mL (≈ 1.32 µM) | EC50 (daphnid): 755 µg/mL (≈ 2360 µM) | solubility ([1]; pH 5, 25 ± 2 °C): 45 µg/mL (≈ 140 µM) | solubility ([1]; pH 7, 25 ± 2 °C): 710 µg/mL (≈ 2220 µM) | biodegradation rate constant k biodeg ([2]; fifth cycle): 0.006 min^–1 | biodegradation rate constant k biodeg ([2]; first cycle): 0.0017 min^–1 | 3‐h EC50, respiration inhibition [3]: 2213 µg/mL | EC10, respiration inhibition [3]: 69 µg/mL (≈ 215 µM) | hatched fish surviving until the end of the test (Danio rerio [4]; 0.1 mg MPA/L nominal (73 µg/L GMMC)): 2 of 75 | EC10, hatching success (Danio rerio [4]; 34 d phase): > 73 µg GMMC MPA/L | NOEC, hatching success (Danio rerio [4]; 34 d phase, GMMC): 73 µg/L | lowest EC10 (Danio rerio [4]; Danio rerio, in vivo, 57 d): 5.8 µg MPA/L | overall NOEC for all endpoints in both F0 and F1 generations (Danio rerio [4]; Danio rerio, in vivo, 57 d): 1.32 µg MPA/L | EC10, posthatch success (survival) and number of healthy fish (Danio rerio [4]; F1, GMMC): 5.8 µg MPA/L | NOEC, posthatch success (survival) and number of healthy fish (Danio rerio [4]; F1, GMMC): 10.9 µg MPA/L | EC10, length of the surviving F1 fish (Danio rerio [4]; GMMC): 31.9 µg MPA/L | EC10, wet weight of the surviving F1 fish (Danio rerio [4]; GMMC): 10.6 µg MPA/L | NOEC, length of the surviving F1 fish (Danio rerio [4]; GMMC): 1.32 µg/L | NOEC, wet weight of the surviving F1 fish (Danio rerio [4]; GMMC): 1.32 µg/L | EC10 for survival of the parental fish (Danio rerio [5]; 23 d, GMMC): 0.0189 µg/mL | NOEC of all endpoints (survival of parental fish, fecundity, fertilization success), F0 (Danio rerio [5]; 23 d, GMMC): 73 µg/L | NOEC of all endpoints (survival of parental fish, fecundity, fertilization success), F0 (Danio rerio [5]; 23 d, highest tested nominal concentration): 100 µg MPA/L | EC10 for fecundity and fertilization success (Danio rerio [5]; Danio rerio, in vivo, 23 days): > 73 µg MPA/L | Vapor pressure (Screening vapor pressure): < 10^–6 hPa

Reference: publication PMC6856805, “Environmental Risk Assessment for the Active Pharmaceutical Ingredient Mycophenolic Acid in European Surface Waters” (Environmental Toxicology and Chemistry, 2019)
